# Measured values published in BindingDB's records for doi:10.7270/Q2T72FVT (University of Pittsburgh, 2007).
# Target: Serine/threonine-protein kinase PLK1 (Homo sapiens, UniProt P53350)
# Assay: Plk1 polo box domain binding inhibitors, dose response, biochemical, fluorescence polarization (AID 877)
# Sequence of Serine/threonine-protein kinase PLK1 (P53350 whole entry, the tested form may be a part): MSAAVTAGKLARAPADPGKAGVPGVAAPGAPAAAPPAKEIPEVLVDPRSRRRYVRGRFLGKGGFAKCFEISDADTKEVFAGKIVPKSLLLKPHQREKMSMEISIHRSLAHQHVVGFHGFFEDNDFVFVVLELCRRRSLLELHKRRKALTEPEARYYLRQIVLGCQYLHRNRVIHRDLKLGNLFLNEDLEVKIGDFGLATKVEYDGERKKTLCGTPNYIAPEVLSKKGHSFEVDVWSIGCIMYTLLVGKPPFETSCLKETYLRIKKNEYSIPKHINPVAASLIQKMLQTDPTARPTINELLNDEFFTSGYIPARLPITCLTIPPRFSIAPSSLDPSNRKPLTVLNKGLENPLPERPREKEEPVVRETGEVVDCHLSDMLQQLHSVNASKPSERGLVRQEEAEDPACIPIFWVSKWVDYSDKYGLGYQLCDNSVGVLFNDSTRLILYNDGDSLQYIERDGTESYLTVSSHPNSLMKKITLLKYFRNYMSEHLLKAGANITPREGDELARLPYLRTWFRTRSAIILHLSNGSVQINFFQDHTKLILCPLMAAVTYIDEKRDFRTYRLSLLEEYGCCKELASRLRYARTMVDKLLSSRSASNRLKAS
row,Compound,IC50
1,"O=C1CCN2C=Nc3cccc4ccc1c2c34 [7,8-dihydro-9H-pyrido[1,2,3-cd]perimidin-9-one]",25.1 µM
2,CCC(=O)Nc1ccccc1C(=O)NC1CCCCC1 [MLS000538265],> 50 µM
3,Cc1ccc(OCC(=O)Nc2ccc(N3CCOCC3)cc2)cc1 [2-(4-methylphenoxy)-N-(4-morpholin-4-ylphenyl)acetamide],> 50 µM
4,CCOc1ccccc1N1CCN(C2=C(NS(=O)(=O)c3cccs3)C(=O)c3ccccc3C2=O)CC1 [MLS000551587],> 50 µM
5,"CC1CN(C2CC(C)(C)NC(C)(C)C2)CCC1=O (centres undefined) [3-methyl-1-(2,2,6,6-tetramethyl-4-piperidinyl)-4-piperidinone]",> 50 µM
6,"CC1Cn2c(nnc2-c2cc3ccccc3cc2O)S1 (centres undefined) [(3E)-3-(6-methyl-5,6-dihydro-2H-[1,3]thiazolo[2,3-c][1,2,4]triazol-3-ylidene)naphthalen-2-one]",> 50 µM
7,"Cc1ccc(C(=O)Nc2cnc3sc(C)nn3c2=O)cc1 [4-methyl-N-(2-methyl-5-oxidanylidene-[1,3,4]thiadiazolo[3,2-a]pyrimidin-6-yl)benzamide]",> 50 µM
8,O=C(c1ccc(-n2cnnn2)cc1)N1CCCCC1 [1-piperidinyl-[4-(1-tetrazolyl)phenyl]methanone],> 50 µM
9,Cc1ccc2cc(C(c3nnnn3C3CCCC3)N3CCN(c4ccccc4)CC3)c(=O)[nH]c2c1 (centres undefined) [3-[(1-cyclopentyltetrazol-5-yl)-(4-phenylpiperazin-1-yl)methyl]-7-methyl-1H-quinolin-2-one],> 50 µM
10,NC(=O)Cn1c(S(=O)(=O)Cc2ccccc2)nc2ccccc21 [2-(2-benzylsulfonylbenzimidazol-1-yl)acetamide],> 50 µM
11,"CC1Cc2ccccc2N1C(=O)c1ccc2c(c1)nnn2C (centres undefined) [(1-methyl-5-benzotriazolyl)-(2-methyl-2,3-dihydroindol-1-yl)methanone]",> 50 µM
12,"CCOC(=O)c1c2c(n(C)c1C)C(=O)C(=O)c1ccc(Br)cc1-2 [8-bromo-2,3-dimethyl-4,5-dioxo-1-benzo[e]indolecarboxylic acid ethyl ester]",10.4 µM
13,"CCn1c(SCC(N)=O)nnc1-c1ccc(S(=O)(=O)N2CCN(C)CC2)cc1 [2-[[4-ethyl-5-[4-(4-methylpiperazin-1-yl)sulfonylphenyl]-1,2,4-triazol-3-yl]sulfanyl]acetamide]",> 50 µM
14,Cc1ccc(NC2=CC(=NS(=O)(=O)c3cccs3)c3ccccc3C2=O)c(C)c1,> 50 µM
